Data published in patent publication US20100267561A1, “HERBICIDAL PYRIDAZINONE DERIVATIVES” (priority 2007, published 2010).

Legend:
Format in all cases: in vivo
[1] = tested on: canarygrass (Phalaris minor); test: Test A pre-/postemergence plant response
How it was run: (§1)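 Greenhouse pot test: loam–sand soil; pre- and postemergence sprays applied same day; post plants 2–10 cm, 1–2 leaves. Readout ~10 d, visual % injury vs untreated (0 = none, 100 = complete control).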

[2] = tested on: large crabgrass (Digitaria sanguinalis); test: Test A pre-/postemergence plant response
How it was run: as §1

[3] = tested on: barnyardgrass (Echinochloa crus-galli); test: Test A pre-/postemergence plant response
How it was run: as §1

[4] = tested on: blackgrass (Alopecurus myosuroides); test: Test A pre-/postemergence plant response
How it was run: as §1

corn (Zea mays) = test: Test A pre-/postemergence plant response
How it was run: as §1

[5] = tested on: pigweed (Amaranthus retroflexus); test: Test A pre-/postemergence plant response
How it was run: as §1

[6] = tested on: wheat (Triticum aestivum); test: Test A pre-/postemergence plant response
How it was run: as §1

[7] = tested on: giant foxtail (Setaria faberi); test: Test A pre-/postemergence plant response
How it was run: as §1

rice (Oryza sativa) = test: Test B flooded paddy test plant response
How it was run: (§2)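 Step one: raise plants to 2 leaves. Step two: flood pots 3 cm over the soil and apply compound into the water, keeping this depth. Step three: after 13–15 greenhouse days, score visually versus controls, 0–100, where 100 means complete control.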

[8] = tested on: ducksalad (Heteranthera limosa); test: Test B flooded paddy test plant response
How it was run: as §2

[9] = tested on: barnyardgrass (Echinochloa crus-galli); test: Test B flooded paddy test plant response
How it was run: as §2

[10] = tested on: umbrella sedge (Cyperus difformis); test: Test B flooded paddy test plant response
How it was run: as §2

[11] = Postemergence, 31 g ai/ha, 0 to 100 scale (0 no effect, 100 complete control)
[12] = Postemergence, 125 g ai/ha, 0 to 100 scale, 0 no effect, 100 complete control
[13] = Preemergence, 31 g ai/ha, 0 to 100 scale, 0 is no effect, 100 is complete control
[14] = Preemergence, 125 g ai/ha, 0 to 100 scale (0 no effect, 100 complete control)
[15] = Flood (flooded paddy test), 250 g ai/ha, scale 0 to 100, 0 no effect, 100 complete control
[16] = Flood, 62 g ai/ha, scale 0 to 100

| Structure (SMILES) | Plant response rating, Canarygrass [1, 11] | Plant response rating, Canarygrass [1, 12] | Plant response rating, Canarygrass [1, 13] | Plant response rating, Canarygrass [1, 14] | Plant response rating, Crabgrass, Large [2, 11] | Plant response rating, Crabgrass, Large [2, 12] | Plant response rating, Crabgrass, Large [2, 13] | Plant response rating, Crabgrass, Large [2, 14] | Plant response rating, Barnyardgrass [3, 11] | Plant response rating, Barnyardgrass [3, 12] | Plant response rating, Barnyardgrass [3, 13] | Plant response rating, Barnyardgrass [3, 14] | Plant response rating, Blackgrass [4, 11] | Plant response rating, Blackgrass [4, 12] | Plant response rating, Blackgrass [4, 13] | Plant response rating, Blackgrass [4, 14] | Plant response rating, Corn (corn (Zea mays); [11]) | Plant response rating, Corn (corn (Zea mays); [12]) | Plant response rating, Corn (corn (Zea mays); [14]) | Plant response rating, Pigweed [5, 12] | other results |
| --- | --- | --- | --- | --- | --- | --- | --- | --- | --- | --- | --- | --- | --- | --- | --- | --- | --- | --- | --- | --- | --- |
| CCc1cc(-c2ccc(C(F)(F)F)cc2)nn1-c1c(OC(=O)C2CCCCC2)cnn(C)c1=O [Compound 95] | 90 | 100 | 70 | 100 | 90 | 100 | 90 | 100 | 100 | 100 | 50 | 100 | 70 | 100 | 90 | 100 | 90 | 100 | 90 | 0 | Plant response rating, Corn (corn (Zea mays); [13]): 40; Plant response rating, Pigweed [5, 11]: 0; Plant response rating, Pigweed [5, 13]: 0; Plant response rating, Pigweed [5, 14]: 0; Plant response rating, Wheat [6, 11]: 70; Plant response rating, Wheat [6, 12]: 80; Plant response rating, Wheat [6, 13]: 80; Plant response rating, Wheat [6, 14]: 90; Plant response rating, Foxtail, Giant [7, 11]: 100; Plant response rating, Foxtail, Giant [7, 12]: 100; Plant response rating, Foxtail, Giant [7, 13]: 100; Plant response rating, Foxtail, Giant [7, 14]: 100 |
| Cc1cn(-c2ccc(Cl)cn2)nc1-c1c(O)cnn(C)c1=O [Compound 84] | 0 | 0 | 0 | 0 | 0 | 10 | 0 | 0 | 0 | 0 | 0 | 0 | 0 | 0 | 0 | 0 | 0 | 0 | 0 | 0 | Plant response rating, Corn (corn (Zea mays); [13]): 0; Plant response rating, Pigweed [5, 11]: 0; Plant response rating, Pigweed [5, 13]: 0; Plant response rating, Pigweed [5, 14]: 0; Plant response rating, Wheat [6, 11]: 0; Plant response rating, Wheat [6, 12]: 0; Plant response rating, Wheat [6, 13]: 0; Plant response rating, Wheat [6, 14]: 0; Plant response rating, Foxtail, Giant [7, 11]: 0; Plant response rating, Foxtail, Giant [7, 12]: 10; Plant response rating, Foxtail, Giant [7, 13]: 0; Plant response rating, Foxtail, Giant [7, 14]: 0; Plant response rating, Rice (rice (Oryza sativa); [15]): 0; Plant response rating, Rice (rice (Oryza sativa); [16]): 0; Plant response rating, Ducksalad [8, 15]: 0; Plant response rating, Ducksalad [8, 16]: 0; Plant response rating, Barnyardgrass [9, 15]: 0; Plant response rating, Barnyardgrass [9, 16]: 0; Plant response rating, Sedge, Umbrella [10, 15]: 0; Plant response rating, Sedge, Umbrella [10, 16]: 0 |
| Cc1c(Br)c(-c2ccc(Br)cc2)nn1-c1c(O)cnn(C)c1=O [Compound 70] | 0 | 0 | 0 | 0 | 0 | 0 | 0 | 0 | 0 | 50 | 0 | 0 | 0 | 10 | 0 | 0 | 0 | 20 | 0 | 0 | Plant response rating, Corn (corn (Zea mays); [13]): 0; Plant response rating, Pigweed [5, 11]: 0; Plant response rating, Pigweed [5, 13]: 0; Plant response rating, Pigweed [5, 14]: 0; Plant response rating, Wheat [6, 11]: 0; Plant response rating, Wheat [6, 12]: 0; Plant response rating, Wheat [6, 13]: 0; Plant response rating, Wheat [6, 14]: 0; Plant response rating, Foxtail, Giant [7, 11]: 0; Plant response rating, Foxtail, Giant [7, 12]: 0; Plant response rating, Foxtail, Giant [7, 13]: 0; Plant response rating, Foxtail, Giant [7, 14]: 0 |
| CCc1cc(-c2ccc(Br)cc2)nn1-c1c(O)c(OC)nn(C)c1=O [Compound 89] | 100 | 100 | 50 | 100 | 100 | 100 | 70 | 100 | 100 | 100 | 30 | 100 | 100 | 100 | 90 | 100 | 100 | 100 | 70 | 0 | Plant response rating, Corn (corn (Zea mays); [13]): 50; Plant response rating, Pigweed [5, 13]: 0; Plant response rating, Pigweed [5, 14]: 0; Plant response rating, Wheat [6, 11]: 80; Plant response rating, Wheat [6, 12]: 90; Plant response rating, Wheat [6, 13]: 40; Plant response rating, Wheat [6, 14]: 90; Plant response rating, Foxtail, Giant [7, 11]: 100; Plant response rating, Foxtail, Giant [7, 12]: 100; Plant response rating, Foxtail, Giant [7, 13]: 90; Plant response rating, Foxtail, Giant [7, 14]: 100 |
| CCc1cc(-c2ccc(C(F)(F)F)cc2)nn1-c1c(OC(=O)c2ccc(Cl)nc2)cnn(C)c1=O [Compound 94] | 70 | 100 | 70 | 90 | 90 | 100 | 70 | 100 | 100 | 100 | 50 | 100 | 80 | 100 | 60 | 100 | 100 | 100 | 90 | 0 | Plant response rating, Pigweed [5, 11]: 0; Plant response rating, Pigweed [5, 13]: 0; Plant response rating, Pigweed [5, 14]: 0; Plant response rating, Wheat [6, 11]: 50; Plant response rating, Wheat [6, 12]: 80; Plant response rating, Wheat [6, 13]: 50; Plant response rating, Wheat [6, 14]: 90; Plant response rating, Foxtail, Giant [7, 11]: 100; Plant response rating, Foxtail, Giant [7, 12]: 100; Plant response rating, Foxtail, Giant [7, 13]: 90; Plant response rating, Foxtail, Giant [7, 14]: 100 |
| Cn1ncc(O)c(-c2nn(-c3ccc(C(F)(F)F)cc3)cc2Cl)c1=O [Compound 88] | 30 | 70 | 0 | 70 | 40 | 90 | 0 | 90 | 10 | 90 | 0 | 90 | 10 | 70 | 40 | 80 | 0 | 50 | 20 | 0 | Plant response rating, Corn (corn (Zea mays); [13]): 0; Plant response rating, Pigweed [5, 11]: 0; Plant response rating, Pigweed [5, 13]: 0; Plant response rating, Pigweed [5, 14]: 0; Plant response rating, Wheat [6, 11]: 20; Plant response rating, Wheat [6, 12]: 60; Plant response rating, Wheat [6, 13]: 0; Plant response rating, Wheat [6, 14]: 40; Plant response rating, Foxtail, Giant [7, 11]: 40; Plant response rating, Foxtail, Giant [7, 12]: 90; Plant response rating, Foxtail, Giant [7, 13]: 40; Plant response rating, Foxtail, Giant [7, 14]: 90 |
